Laboratory results taken from patent US8404685B2, “Dihydropyrazole derivatives as tyrosine kinase modulators for the treatment of tumors” (Merck Patent Gesellschaft Mit Beschrankter Haftung, priority 2008, dated 2013).

Legend:
Met kinase [1] = biological target: T1, Met kinase (Homo sapiens, UniProt P08581); assay: Met kinase inhibition (cell); type: cell-based
Met kinase [2] = biological target: T1, Met kinase; assay: Met kinase inhibition, flashplate method (enzyme); type: biochemical; parameters: 6His (N); purchased Upstate 14-526; host or cells: Sf21 insect cells (S. frugiperda), baculovirus
Excerpt: According to the manufacturer's data (Met, active, Upstate, catalogue No. 14-526), Met kinase is expressed for the purposes of protein production in insect cells (Sf21; S. frugiperda) and subsequent affinity-chromatographic purification as “N-terminal 6His-tagged” recombinant human protein in a baculovirus expression vector.
The test plates used are 96-well Flashplate® microtitre plates from Perkin Elmer (Cat. No. SMP200). The components of the kinase reaction described below are pipetted into the assay plate. The Met kinase and the substrate poly Ala-Glu-Lys-Tyr, (pAGLT, 6:2:5:1), are incubated for 3 hrs at room temperature with radioactively labelled ^33P-ATP in the presence and absence of test substances in a total volume of 100 μl. The reaction is terminated using 150 μl of a 60 mM EDTA solution. After incubation for a further 30 min at room temperature, the supernatants are filtered off with suction, and the wells are washed three times with 200 μl of 0.9% NaCl solution each time. The measurement of the bound radioactivity is carried out by means of a scintillation measuring instrument (Topcount NXT, Perkin-Elmer).
The full value used is the inhibitor-free kinase reaction. This should be approximately in the range 6000-9000 cpm. The pharmacological zero value used is staurosporin in a final concentration of 0.1 mM. The inhibitory values (IC50) are determined using the RS1_MTS program.
Kinase reaction conditions per well:
10 μl of substance to be tested in assay buffer with 10% of DMSO
10 μl of ATP (final concentration 1 μM cold, 0.35 μCi of ^33P-ATP)
50 μl of Met kinase/substrate mixture in assay buffer;
• (10 ng of enzyme/well, 50 ng of pAGLT/well) • Solutions used: • Assay buffer: • 50 mM HEPES • 3 mM magnesium chloride • 3 μM sodium orthovanadate • 3 mM manganese(II) chloride • 1 mM dithiothreitol (DTT) • pH=7.5 (to be set using sodium hydroxide) • Stop solution: • 60 mM Titriplex III (EDTA) • ^33P-ATP: Perkin-Elmer; • Met kinase: Upstate, Cat. No. 14-526, Stock 1 μg/10 μl; spec. activity 954 U/mg; • Poly-Ala-Glu-Lys-Tyr, 6:2:5:1: Sigma Cat. No. P1152 In-Vivo Tests

T1 sequence (P08581 25-1390): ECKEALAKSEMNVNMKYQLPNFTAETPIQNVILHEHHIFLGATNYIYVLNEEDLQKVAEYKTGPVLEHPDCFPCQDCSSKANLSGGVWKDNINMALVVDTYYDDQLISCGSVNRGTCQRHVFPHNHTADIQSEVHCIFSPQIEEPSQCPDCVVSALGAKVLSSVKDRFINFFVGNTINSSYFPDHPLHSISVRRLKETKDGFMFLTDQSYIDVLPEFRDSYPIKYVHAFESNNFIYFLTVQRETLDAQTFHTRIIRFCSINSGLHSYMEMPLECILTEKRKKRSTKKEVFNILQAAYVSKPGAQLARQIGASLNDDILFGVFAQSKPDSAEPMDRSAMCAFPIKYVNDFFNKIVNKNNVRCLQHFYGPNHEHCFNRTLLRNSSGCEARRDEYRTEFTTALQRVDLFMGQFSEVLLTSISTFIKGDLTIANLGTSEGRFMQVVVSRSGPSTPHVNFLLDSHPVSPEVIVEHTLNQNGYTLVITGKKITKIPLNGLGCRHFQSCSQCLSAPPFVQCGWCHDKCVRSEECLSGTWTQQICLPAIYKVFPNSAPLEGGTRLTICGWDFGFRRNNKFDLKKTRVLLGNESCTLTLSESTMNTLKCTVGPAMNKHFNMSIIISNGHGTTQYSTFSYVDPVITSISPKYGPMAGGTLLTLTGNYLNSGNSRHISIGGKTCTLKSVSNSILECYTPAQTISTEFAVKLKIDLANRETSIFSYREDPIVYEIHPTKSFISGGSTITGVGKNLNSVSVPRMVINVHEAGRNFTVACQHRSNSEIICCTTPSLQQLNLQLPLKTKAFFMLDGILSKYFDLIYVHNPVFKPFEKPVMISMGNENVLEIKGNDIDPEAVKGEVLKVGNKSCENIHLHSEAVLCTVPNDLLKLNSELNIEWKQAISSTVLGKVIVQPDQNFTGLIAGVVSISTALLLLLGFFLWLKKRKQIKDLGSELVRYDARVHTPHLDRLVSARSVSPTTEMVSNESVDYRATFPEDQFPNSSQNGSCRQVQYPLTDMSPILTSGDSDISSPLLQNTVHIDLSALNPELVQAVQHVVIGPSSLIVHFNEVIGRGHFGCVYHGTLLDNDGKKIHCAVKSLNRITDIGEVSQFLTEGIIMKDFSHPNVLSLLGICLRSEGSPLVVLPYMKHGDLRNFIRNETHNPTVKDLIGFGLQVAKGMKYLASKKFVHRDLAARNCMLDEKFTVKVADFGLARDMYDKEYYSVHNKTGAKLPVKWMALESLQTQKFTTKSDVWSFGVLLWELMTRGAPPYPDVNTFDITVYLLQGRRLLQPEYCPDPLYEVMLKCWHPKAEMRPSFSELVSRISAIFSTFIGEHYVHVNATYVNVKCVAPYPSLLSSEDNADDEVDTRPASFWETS

SMILES	IC50 (Met kinase [1]) [nM]	IC50 (Met kinase [2]) [nM]
N#Cc1cccc(C2=NN(C(=O)Cc3cccc(-c4ncc(Br)cn4)c3)CC2)c1 [Compound A7, 3-(1-{2-[3-(5-bromopyrimidin-2-yl)phenyl]acetyl}-4,5-dihydro-1H-pyrazol-3-yl)benzonitrile]	1 to 100	1 to 100
O=C(Cc1cccc(-c2ncc(-c3cnn(CCN4CCCC4)c3)cn2)c1)N1CCC(c2cc(Cl)ccc2Cl)=N1 [Compound A1, 1-[3-(2,5-dichlorophenyl)-4,5-dihydropyrazol-1-yl]-2-(3-{5-[1-(2-pyrrolidin-1-ylethyl)-1H-pyrazol-4-yl]pyrimidin-2-yl}phenyl)ethanone]	1 to 100	1 to 100
O=C(Cc1cccc(-c2ncc(OCCN3CCOCC3)cn2)c1)N1CCC(c2cc(Cl)ccc2Cl)=N1 [Compound A8, 1-[3-(2,5-dichlorophenyl)-4,5-dihydropyrazol-1-yl]-2-{3-[5-(2-morpholin-4-ylethoxy)pyrimidin-2-yl]phenyl}ethanone]	1 to 100	1 to 100
